Here are results for five molecules from ChEMBL document CHEMBL1125622 (J Med Chem, 1991).

Data set [1] concerns the target T1, Dopamine beta-hydroxylase (Bos taurus) (UniProt P15101).
T1 sequence (whole entry): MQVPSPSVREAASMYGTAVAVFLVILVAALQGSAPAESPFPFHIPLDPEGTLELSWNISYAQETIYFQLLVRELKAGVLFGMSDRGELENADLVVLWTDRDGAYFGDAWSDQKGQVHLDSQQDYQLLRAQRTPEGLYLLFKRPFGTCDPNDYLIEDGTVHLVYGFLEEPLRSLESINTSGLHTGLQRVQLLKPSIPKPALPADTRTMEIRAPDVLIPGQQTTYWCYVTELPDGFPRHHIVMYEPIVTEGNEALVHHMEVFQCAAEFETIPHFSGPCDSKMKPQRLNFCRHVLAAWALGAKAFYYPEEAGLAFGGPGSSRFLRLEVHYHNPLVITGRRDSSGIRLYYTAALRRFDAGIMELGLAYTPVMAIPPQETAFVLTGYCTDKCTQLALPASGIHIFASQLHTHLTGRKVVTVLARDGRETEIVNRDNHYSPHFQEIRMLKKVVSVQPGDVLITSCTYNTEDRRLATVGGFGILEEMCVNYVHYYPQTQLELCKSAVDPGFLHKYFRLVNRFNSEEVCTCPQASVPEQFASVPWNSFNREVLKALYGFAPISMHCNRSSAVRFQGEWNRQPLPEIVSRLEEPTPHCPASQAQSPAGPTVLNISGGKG
As to the kind of experiment: Kcat/Km value of the compound. More on the design: unit not given here.

Data set [2] deals with T1, Dopamine beta-hydroxylase (Bos taurus). As to the kind of experiment: Kinetic parameter kcat was measured for dopamine beta-monooxygenase.
For data set [3], the species on record is Rattus norvegicus. As to the kind of experiment: The ability to inhibit dopamine uptake was measured in rat brain striatal synaptosomes. The data set is classed as functional.
Substrate in data set [4]: C[C@@H](N)CSc1ccccc1
As to the kind of experiment: (§1) Kinetic parameter Km was measured for dopamine beta-monooxygenase.

Substrate in data set [5]: C[C@H](N)CSc1ccccc1
The description is as §1.

One may read the IC50 as the concentration that inhibits the measured activity by half. Regarding `C[C@H](N)CSc1ccccc1`, the Ratio in data set [1] stood at 4800. The same molecule yielded a k cat in data set [2] of 37 s⁻¹. The same molecule gave an IC50 in data set [3] of 6.5 µM.
In the case of `NCCc1ccc(O)cc1`, in data set [1], the Ratio is 60000. Besides, in data set [2], the k cat was determined as 121 s⁻¹.
Regarding `C[C@@H](N)CSc1ccccc1`, the Ratio in data set [1] came out at 700. This molecule registered a k cat in data set [2] of 13 s⁻¹.
Taken in the same sequence, the figures for `NCCCc1ccccc1` were 800 and 17 s⁻¹.

B1: Dopamine beta-hydroxylase (Bos taurus), P15101 (protein)
chain: MQVPSPSVREAASMYGTAVAVFLVILVAALQGSAPAESPFPFHIPLDPEGTLELSWNISYAQETIYFQLLVRELKAGVLFGMSDRGELENADLVVLWTDRDGAYFGDAWSDQKGQVHLDSQQDYQLLRAQRTPEGLYLLFKRPFGTCDPNDYLIEDGTVHLVYGFLEEPLRSLESINTSGLHTGLQRVQLLKPSIPKPALPADTRTMEIRAPDVLIPGQQTTYWCYVTELPDGFPRHHIVMYEPIVTEGNEALVHHMEVFQCAAEFETIPHFSGPCDSKMKPQRLNFCRHVLAAWALGAKAFYYPEEAGLAFGGPGSSRFLRLEVHYHNPLVITGRRDSSGIRLYYTAALRRFDAGIMELGLAYTPVMAIPPQETAFVLTGYCTDKCTQLALPASGIHIFASQLHTHLTGRKVVTVLARDGRETEIVNRDNHYSPHFQEIRMLKKVVSVQPGDVLITSCTYNTEDRRLATVGGFGILEEMCVNYVHYYPQTQLELCKSAVDPGFLHKYFRLVNRFNSEEVCTCPQASVPEQFASVPWNSFNREVLKALYGFAPISMHCNRSSAVRFQGEWNRQPLPEIVSRLEEPTPHCPASQAQSPAGPTVLNISGGKG
As usually defined, the Km is the substrate concentration at which the rate is half of its maximum. As to B1, the Km in data set [4] came out at 19 mM; in data set [5], 7.7 mM.
